How the values were obtained:
NCI-H526 = assay: In vitro cell viability combination assay (CellTiter-Glo); settings: agent combined with MLN4924, vehicle DMSO, 96 hr
Procedure: (§7) General Method: Cells are grown in their respective growth media, supplemented with 10% fetal bovine serum unless otherwise noted. […] A portion of each plate is used for positive controls (no agent is added), while another portion of each plate is used for negative controls (no cells are added). Viability is assessed with CellTiter-Glo® Cell Viability reagent used according to manufacturer's instructions (Promega). Luminescence is measured using a LEADseeker imaging system (GE Healthcare).
(§8) The viability data is normalized separately for each plate by scaling the data so that the median of the negative controls is 0 and the median of the positive controls is 100. More formally,
(§9) [formula] where Vi is the normalized viability of the i^th well, Ui is the raw viability measurement, median (U) is the median of the negative controls, and median (U+) is the median of the positive controls. After normalization, the controls are discarded.
(§10) where E1, E2, E3, E4, I1, I2, I3, S1, S2, S3, and S4 are parameters, CA and CB are the respective concentrations of agents A and B, and V is the normalized viability measurement. It is assumed that the error values are independent and identically distributed normal random variables.
(§11) The Combination Index is computed based on an isobologram, which is a slice of the dose response surface with constant viability. For the present analysis, the 50% isobologram, which is the dose contour that has 50% viability, is used. […] Since the choice of (DA, DB) can be arbitrary, the constraint DA/DB=EC50A/EC50B is used.
(§12) In such cases, Nonlinear Blending can be used as an alternative measure of synergy or additivity. Nonlinear Blending is found by considering a slice of the dose response surface that intersects both concentration axes and runs parallel to the viability axis. Let VA and VB be the viability where the slice intersects the drug A and B axes, respectively. Let Vmax and Vmin be the maximum and minimum viabilities along the slice. Let NLBS=min(VA,VB)−Vmin NLBA=Vmax−max(VA,VB) Define the Nonlinear Blending value to be NLBS if NLBS>NLBA and −NLBA otherwise.
(§13) After completing the analysis of individual plates, the results are combined across the replicates. For a given measure and a set of replicates, the overall mean and standard error are computed using weighted averaging. A null mean, which corresponded to an additive effect, is then compared with the overall mean. The null mean is 1 for the Combination Index and 0 for Nonlinear Blending. Next, a two sized Z-test is performed based on the estimated mean and standard error. This produces a p-value for each measure and each cell line.
(§14) After computing the mean, standard error, and p-value for each set of replicates, these values require interpretation. Thus, a standard procedure is used to produce a classification (synergy, additivity, subadditivity, antagonism, or inconclusive) in each case. If the Combination Index exists for more than half of the replicates, then these measures are used to make the classification.
(§15) Consider the case where the Combination Index is used to make the classification. If the p-value is greater than 0.05, the estimate for the Combination Index is not statistically different from 1. However, if the standard error is also very large, then the estimate is too uncertain to be informative. […] Otherwise, the classification is “Additivity”. When the p-value is less than 0.05, the estimate for the Combination Index is statistically different from 1. However, if the mean is still close to 1, then the difference is not of practical significance. Thus, the result is classified based on the mean. A mean in the range (0.8, 1.2) is considered close enough to 1 to be classified as Additivity. A mean in the range (0, 0.8) is considered low enough to be classified as Synergy. […] The threshold value of 2 can be derived from the definition of the Combination Index.

NCI-H209 = assay: as above; settings: agent combined with MLN4924, vehicle DMSO, 96 hr
Procedure: as §7, §8, §9, §10, §11, §12, §13, §14, §15

LXFE409 xenograft model = assay: Combination of docetaxel or carboplatin and MLN4924 in LXFE409 xenograft model; format: in vivo, mice; settings: LXFE409 xenograft; 50 mg/kg carboplatin QW IP
Procedure: LXFE409 squamous non small cell lung cancer tumor fragments are implanted into the subcutaneous space in the flank of female NMRI nu/nu mice (5-7 weeks, Janvier Labs, Saint Berthevin, France).
(§1) Docetaxel (Henry Schein, Inc., Pittsburgh Pa., Qilu Pharmaceutical Co., Ltd., Jinan, Shandong, China, and Sanofi-Aventis) is formulated in 0.9% saline and administered by intravenous injection (IV) once weekly (QW) at 5 mg/kg or 10 mg/kg.
(§2) Carboplatin (CARBOplatin Injection, Hospira, Inc., Qilu Pharmaceutical Co., Ltd. Jinan, Shandong, China, and Teva Gry-Pharma GmbH, Ulm, Germany) is formulated in 0.9% saline and administered by IP injection once weekly (QW) at 50 mg/kg. The once weekly schedule is also described as every 7 days (Q7D).
(§3) Tumors are measured twice weekly using a vernier caliper. Tumor volumes are calculated using standard procedures (0.5×(length×width^2)). […] Tumor size and body weight are measured approximately twice a week for the duration of the study. Mice are euthanized when their tumor volume reached 10% of their body weight, or when the average tumor volume of a treatment or control group reached approximately 2000 mm^3. Tumor growth continued to be monitored after the dosing period in some studies. Average tumor volume is reported as a function of time for selected groups of selected studies in Figures A, B, and C.
(§4) Measurements from day 0 to 18, 21 or 22 are analyzed as specified in Tables 4-9. All tumor volumes have a value of 1 added to them before log10 transformation. For each animal, the log tumor volume at day 0 is subtracted from the log tumor volume on the subsequent days. This difference vs. time is used to calculate an area under the curve (AUC) for each animal using the trapezoid rule. […] The synergy score for the combination of agents A and B is defined as 100*(mean(AUCAB)−mean(AUCA)−mean(AUCB)+mean(AUCctl))/mean(AUCctl): where AUCAB, AUCA, AUCB, and AUCctl are the AUC values for animals in the combination group, the A group, the B group, and the control group, respectively. The standard error of the synergy score is computed based on the variation in the AUC values among the animals. […] If the P-value is above 0.05, then the combination is considered to be additive. If the P-value is below 0.05, and the synergy score is less than zero, then the combination is considered to be synergistic. […] Otherwise, the combination is classified as antagonistic.

NCI-H520 = assay: In vitro cell viability combination assay (CellTiter-Glo); format: cell-based; settings: agent combined with MLN4924, vehicle PBS, 72 hr
Description: (§5) After normalization, the controls are discarded.
(§6) Otherwise, the classification is “Additivity”.

NCI-H596 = assay: as above; format: cell-based; settings: agent combined with MLN4924, vehicle PBS, 72 hr
Description: as §5, §6

SK-MES-1 = assay: as above; format: cell-based; settings: agent combined with MLN4924, vehicle PBS, 72 hr
Description: as §5, §6

EBC-1 = assay: as above; format: cell-based; settings: agent combined with MLN4924, vehicle PBS, 72 hr
Description: as §5, §6

CHAGO-K-1 = assay: as above; format: cell-based; settings: agent combined with MLN4924, vehicle PBS, 72 hr
Description: as §5, §6

HARA = assay: as above; format: cell-based; settings: agent combined with MLN4924, vehicle PBS, 72 hr
Description: as §5, §6

NCI-H2170 = assay: as above; format: cell-based; settings: agent combined with MLN4924, vehicle PBS, 72 hr
Description: as §5, §6

RERF-LC-SQ1 = assay: as above; format: cell-based; settings: agent combined with MLN4924, vehicle PBS, 72 hr
Description: as §5, §6

NCI-H69 = assay: as above; format: cell-based; settings: agent combined with MLN4924, vehicle DMSO, 96 hr
Description: as §5, §6

LC-1-SQ = assay: as above; format: cell-based; settings: agent combined with MLN4924, vehicle PBS, 72 hr
Description: as §5, §6

SW900 = assay: as above; format: cell-based; settings: agent combined with MLN4924, vehicle PBS, 72 hr
Description: as §5, §6

NCI-H1703 = assay: as above; format: cell-based; settings: agent combined with MLN4924, vehicle PBS, 72 hr
Description: as §5, §6

KNS-62 = assay: as above; format: cell-based; settings: agent combined with MLN4924, vehicle PBS, 72 hr
Description: as §5, §6

SW1573 = assay: as above; format: cell-based; settings: agent combined with MLN4924, vehicle PBS, 72 hr
Description: as §5, §6

LUDLU-1 = assay: as above; format: cell-based; settings: agent combined with MLN4924, vehicle PBS, 72 hr
Description: as §5, §6

CALU-1 = assay: as above; format: cell-based; settings: agent combined with MLN4924, vehicle PBS, 72 hr
Description: as §5, §6

VMRC-LCP = assay: as above; format: cell-based; settings: agent combined with MLN4924, vehicle PBS, 72 hr
Description: as §5, §6

NCI-H1299 = assay: as above; format: cell-based; settings: agent combined with MLN4924, vehicle PBS, 72 hr
Description: as §5, §6

LK-2 = assay: as above; format: cell-based; settings: agent combined with MLN4924, vehicle PBS, 72 hr
Description: as §5, §6

NCI-H510 = assay: as above; settings: agent combined with MLN4924, vehicle DMSO, 96 hr
Procedure: as §7, §8, §9, §10, §11, §12, §13, §14, §15

HCT116 = assay: as above; settings: agent combined with MLN4924, vehicle PBS, 48 hr
Procedure: as §7, §8, §9, §10, §11, §12, §13, §14, §15

NCI-H82 = assay: as above; settings: agent combined with MLN4924, vehicle DMSO, 96 hr
Procedure: as §7, §8, §9, §10, §11, §12, §13, §14, §15

NCI-H69 xenograft model = assay: Combination of carboplatin and MLN4924 in NCI-H69 xenograft model; format: in vivo, mice
Procedure: NCI-H69 or NCI-H82 small cell lung tumor fragments (30- to 40-mg) are implanted into the subcutaneous space in the area of the right flank of NCr nu/nu mice (7-10 weeks, Charles River Laboratories, Inc, Frederick Md. or Wilmington, Mass.) using a 12-gauge trocar.
as §2, §3, §4

A549 = assay: In vitro cell viability combination assay (CellTiter-Glo); settings: agent combined with MLN4924, vehicle PBS, 72 hr
Procedure: as §7, §8, §9, §10, §11, §12, §13, §14, §15

LU1143 xenograft model = assay: Combination of docetaxel or carboplatin and MLN4924 in LU1143 xenograft model; format: in vivo, mice; settings: 50 mg/kg carboplatin QW IP
Procedure: as §1, §2, §3
Measurements from day 0 to 18, 21 or 22 are analyzed as specified in Tables 4-9. All tumor volumes have a value of 1 added to them before log10 transformation. For each animal, the log tumor volume at day 0 is subtracted from the log tumor volume on the subsequent days. This difference vs. time is used to calculate an area under the curve (AUC) for each animal using the trapezoid rule. […] The synergy score for the combination of agents A and B is defined as 100*(mean(AUCAB)−mean(AUCA)−mean(AUCB)+mean(AUCctl))/mean(AUCctl): where AUCAB, AUCA, AUCB, and AUCctl are the AUC values for animals in the combination group, the A group, the B group, and the control group, respectively. The standard error of the synergy score is computed based on the variation in the AUC values among the animals. […] If the P-value is above 0.05, then the combination is considered to be additive. […]

With `N.N.O=C([O-])C1(C(=O)[O-])CCC1.[Pt+2]` [carboplatin] the “Combination Index” value (NCI-H526) was 1.02 ± 0.1, the “Nonlinear Blending” value (NCI-H526) was 0 ± 2 and the “Combination Index” value (NCI-H209) was 1.00 ± 0.06. The “Nonlinear Blending” value (NCI-H209) was −1 ± 1, the “average tumor volume day 21” value (LXFE409 xenograft model) was 204.4 mm^3 and the “Nonlinear Blending” value (NCI-H520) was 9 ± 20. For the same compound, the “Combination Index” value (NCI-H596) was 0.59 ± 0.1, the “Nonlinear Blending” value (NCI-H596) was 10 ± 7 and the “Combination Index” value (SK-MES-1) was 1.32 ± 0.06. The “Nonlinear Blending” value (SK-MES-1) was −22 ± 4, the “Combination Index” value (EBC-1) was 1.24 ± 0.06 and the “Nonlinear Blending” value (EBC-1) was −7 ± 1. For the same compound, the “Combination Index” value (CHAGO-K-1) was 0.88 ± 0.03, the “Nonlinear Blending” value (CHAGO-K-1) was 11 ± 1 and the “Combination Index” value (HARA) was 1.06 ± 0.1. The “Nonlinear Blending” value (HARA) was −3 ± 10, the “Combination Index” value (NCI-H2170) was 1.38 ± 0.1 and the “Nonlinear Blending” value (NCI-H2170) was −19 ± 7. The “Combination Index” value (RERF-LC-SQ1) was 0.77 ± 0.06, the “Nonlinear Blending” value (RERF-LC-SQ1) was 11 ± 1 and the “Combination Index” value (NCI-H69) was 1.18 ± 0.09. For the same compound, the “Nonlinear Blending” value (NCI-H69) was −5 ± 1, the “Combination Index” value (LC-1-SQ) was 0.51 ± 0.04 and the “Nonlinear Blending” value (LC-1-SQ) was 28 ± 2. For the same compound, the “Combination Index” value (SW900) was 0.85 ± 0.06, the “Nonlinear Blending” value (SW900) was 10 ± 1 and the “Combination Index” value (NCI-H1703) was 1.31 ± 0.02. The “Nonlinear Blending” value (NCI-H1703) was −23 ± 2, the “Combination Index” value (KNS-62) was 0.82 ± 0.1 and the “Nonlinear Blending” value (KNS-62) was 10 ± 5. For the same compound, the “Nonlinear Blending” value (SW1573) was 6 ± 5, the “Combination Index” value (LUDLU-1) was 0.84 ± 0.2 and the “Nonlinear Blending” value (LUDLU-1) was 5 ± 5. For the same compound, the “Combination Index” value (CALU-1) was 0.78 ± 0.05, the “Nonlinear Blending” value (CALU-1) was 11 ± 6 and the “Combination Index” value (VMRC-LCP) was 1.00 ± 0.04. For the same compound, the “Nonlinear Blending” value (VMRC-LCP) was −3 ± 1, the “Combination Index” value (NCI-H1299) was 1.10 ± 0.05 and the “Nonlinear Blending” value (NCI-H1299) was −8 ± 2. The “Combination Index” value (LK-2) was 0.66 ± 0.05, the “Nonlinear Blending” value (LK-2) was 15 ± 2 and the “Combination Index” value (NCI-H510) was 0.81 ± 0.08. The “Nonlinear Blending” value (NCI-H510) was 5 ± 2, the “Combination Index” value (HCT116) was 0.71 ± 0.03 and the “Nonlinear Blending” value (HCT116) was 19 ± 2. For the same compound, the “Combination Index” value (NCI-H82) was 0.65 ± 0.1, the “Nonlinear Blending” value (NCI-H82) was 12 ± 2 and the “average tumor volume day 21” value (NCI-H69 xenograft model; 50 mg/kg carboplatin QW IP) was 501.3 mm^3. For the same compound, the “tumor growth during the treatment period (in words)” value (NCI-H69 xenograft model; FIG. 3, MLN4924 SC 120 mg/kg BID Q3Dx2/week, carboplatin 50 mg/kg IP QW, single agents or their combination) was “inhibited tumor growth compared to the control vehicle group”, the “Combination Index” value (A549) was 0.72 ± 0.05 and the “Nonlinear Blending” value (A549) was 8 ± 4. For the same compound, the “average tumor volume day 21” value (LU1143 xenograft model) was 658.7 mm^3.

Source: US10786505B2, “Administration of NEDD8-activating enzyme inhibitor and chemotherapeutic agents” (Millennium Pharmaceuticals, Inc., priority 2013, dated 2020)
